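Where inhibition never reached the appropriate level, the endpoint shown equals the highest concentration tested. Otherwise, values were interpolated linearly from a five-concentration, 48-hour dose response in 96-well plates. At the GI50, growth is halved. At the TGI there is no net growth.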

Test systems include MALME-3M melanoma; SR leukemia; TK-10 renal; HCC-2998 colon; COLO 205 colon; CAKI-1 renal; CCRF-CEM leukemia; UACC-257 melanoma; NCI-H226 lung; LOX IMVI melanoma.
What all share (assay): DTP human tumour cell line panel, 48 h

Consider `O=C1Nc2cc(-c3cccc(O)c3)ccc2/C1=C/c1ccc[nH]1`, for which the GI50 was 1340 nM in the test on MALME-3M melanoma; 28.2 nM with SR leukemia; 833 nM in the test on TK-10 renal; 2.03 µM in the test on HCC-2998 colon; 4.37 µM with COLO 205 colon; 1790 nM with CAKI-1 renal. The GI50 in the test on CCRF-CEM leukemia is 2.27 µM; with UACC-257 melanoma, 2810 nM; in the test on NCI-H226 lung, 2790 nM; in the test on LOX IMVI melanoma, 1310 nM. Further, the total growth inhibition concentration (TGI) stood at 3.71 µM in the test with MALME-3M melanoma; 1.82 µM in the test with SR leukemia; 9.19 µM in the test with TK-10 renal; 11.8 µM in the test on HCC-2998 colon; 28.6 µM with COLO 205 colon; 5.91 µM in the test on CAKI-1 renal. Also, the TGI with CCRF-CEM leukemia is > 100 µM; in the test with UACC-257 melanoma, 8.53 µM; in the test on NCI-H226 lung, 11.4 µM; in the test on LOX IMVI melanoma it was 3.11 µM.

Turning to `Cc1ccc(C(=O)c2sc3nc4c(cc3c2N)CCCC4)c(C)c1`, the GI50 in the test on MALME-3M melanoma was 75.4 nM; in the test on SR leukemia it was 124 nM; with TK-10 renal, 12800 nM; with HCC-2998 colon it was 4.72 µM; in the test on COLO 205 colon it was 0.899 µM; in the test with CAKI-1 renal it was 361 nM. Further, the 50% growth inhibitory concentration (GI50) is 0.311 µM with CCRF-CEM leukemia, 539 nM in the test on UACC-257 melanoma, 2670 nM in the test on NCI-H226 lung and 502 nM with LOX IMVI melanoma. Besides, the TGI in the test on MALME-3M melanoma is > 100 µM; with SR leukemia, > 73 µM; in the test on TK-10 renal it was > 100 µM; in the test with HCC-2998 colon it was > 100 µM; in the test with COLO 205 colon, 5.07 µM; in the test on CAKI-1 renal it was > 100 µM. Moreover, the TGI in the test with CCRF-CEM leukemia, with UACC-257 melanoma, with NCI-H226 lung and in the test on LOX IMVI melanoma was > 100 µM in each case.

With `CNC(=O)c1cc(Oc2cccc3nc(NC(=O)Nc4cc(C(F)(F)F)cc(C(F)(F)F)c4)ccc23)ccn1`, the GI50 in the test with MALME-3M melanoma was 2620 nM; in the test on SR leukemia it was 13000 nM; in the test with TK-10 renal, 3220 nM; in the test with HCC-2998 colon, 15.5 µM; in the test with COLO 205 colon, 10.8 µM; in the test with CAKI-1 renal, 10100 nM. Also, the GI50 was 29.4 µM in the test on CCRF-CEM leukemia, 13200 nM in the test with UACC-257 melanoma, 4210 nM in the test with NCI-H226 lung and 3260 nM in the test with LOX IMVI melanoma. The TGI in the test on MALME-3M melanoma was 12.9 µM; with SR leukemia, > 100 µM; in the test on TK-10 renal, 11.5 µM; in the test on HCC-2998 colon, > 100 µM; in the test on COLO 205 colon, 23.8 µM; in the test with CAKI-1 renal, 57.3 µM. Besides, the TGI is > 100 µM with CCRF-CEM leukemia, 44.1 µM in the test with UACC-257 melanoma, 39.8 µM with NCI-H226 lung and 29.5 µM in the test with LOX IMVI melanoma.

For `O=C(O)[C@@H]1OCCOCCO[C@@H](C(=O)O)[C@H](C(=O)O)OCCOCCO[C@H]1C(=O)O`, the TGI in the test with MALME-3M melanoma is > 100 µM; with SR leukemia, 40 µM; in the test with TK-10 renal, > 100 µM; with HCC-2998 colon it was > 100 µM; in the test on COLO 205 colon, > 100 µM; in the test on CAKI-1 renal, > 100 µM. Besides, the TGI with CCRF-CEM leukemia was > 73.6 µM; in the test on UACC-257 melanoma, > 100 µM; with NCI-H226 lung, > 100 µM; in the test on LOX IMVI melanoma, > 100 µM.

Consider `N#Cc1ccc(-c2c(-c3ncn[nH]3)sc(N3CCOCC3)c2C#N)c(F)c1`, for which the concentration for 50% growth inhibition (GI50) with MALME-3M melanoma was 275 nM; with SR leukemia, 1880 nM; in the test on TK-10 renal, 316 nM; with HCC-2998 colon, 1.08 µM; in the test with COLO 205 colon, 0.687 µM; in the test on CAKI-1 renal it was 432 nM. Besides, the GI50 in the test on CCRF-CEM leukemia was 3.88 µM; in the test on UACC-257 melanoma it was 418 nM; in the test on NCI-H226 lung, 1830 nM; with LOX IMVI melanoma it was 546 nM. Further, the total growth inhibition concentration (TGI) was 6 µM in the test with MALME-3M melanoma; 19.8 µM with SR leukemia; 7.11 µM with TK-10 renal; 17.2 µM in the test on HCC-2998 colon; 15.6 µM in the test with COLO 205 colon; 15.6 µM in the test with CAKI-1 renal. The TGI in the test on CCRF-CEM leukemia was > 100 µM; in the test on UACC-257 melanoma, 8.85 µM; with NCI-H226 lung, 86.3 µM; with LOX IMVI melanoma, 13.1 µM.

On to `CO[C@@H]1CCN(c2nccc(Nc3cc4c(C(C)C)ccc(N5CC(CS(C)(=O)=O)[C@H]5C)c4cn3)n2)C[C@@H]1F` (stereo not given in full), for which the GI50 was 3760 nM with MALME-3M melanoma; 2870 nM in the test with SR leukemia; 843 nM in the test on TK-10 renal; 4.55 µM in the test on HCC-2998 colon; 4.71 µM in the test on COLO 205 colon; 2320 nM with CAKI-1 renal. The GI50 in the test on CCRF-CEM leukemia was 4.55 µM; in the test on UACC-257 melanoma, 4910 nM; in the test with NCI-H226 lung, 6170 nM; in the test with LOX IMVI melanoma, 4340 nM. The total growth inhibition concentration (TGI) in the test with MALME-3M melanoma is 15.6 µM; with SR leukemia it was 32.7 µM; in the test on TK-10 renal, 19.9 µM; in the test on HCC-2998 colon it was 36 µM; in the test on COLO 205 colon it was > 100 µM; with CAKI-1 renal, > 100 µM. Moreover, the TGI in the test with CCRF-CEM leukemia was > 100 µM; in the test with UACC-257 melanoma, 41.1 µM; in the test on NCI-H226 lung, 62.9 µM; in the test with LOX IMVI melanoma, 16.8 µM.

In general, GI50 refers to the concentration that inhibits growth by half. As a reminder, the TGI is the concentration at which net growth stops. Higher therefore signals lower sensitivity of the cells.

The values are drawn from PubChem BioAssay (NCI).
